One experiment has as its target T1, JAK3 (Homo sapiens, UniProt P52333).
T1 construct: recombinant purified GST-tagged catalytic domain for each enzyme; purchased Invitrogen M4290
The experiment can be described thus: Jak Biochemical HTRF Assay (JAK3). The conditions noted are these: recombinant purified GST-tagged catalytic domain, [ATP] 2.9 μM, values given as range classes. In outline: (§1)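 GST-tagged recombinant catalytic domain and biotinylated peptide substrate were preincubated with compound for 30 min at room temperature in kinase buffer with 2 mM DTT and 0.05% BSA. ATP then started a 120 min reaction. Phosphopeptide was detected by HTRF (Eu-pY20/streptavidin-Dylight 650, 665/615 nm ratio), and IC50 came from a 4-parameter fit of percent inhibition.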
In general terms: In TR-FRET formats the signal depends on donor and acceptor labels being close together.

The next experiment concerns the target T2, JAK2 (Homo sapiens, UniProt O60674).
T2 construct: recombinant purified GST-tagged catalytic domain for each enzyme; purchased Invitrogen M4290
The experiment can be described thus: Jak Biochemical HTRF Assay (JAK2). The conditions noted are these: recombinant purified GST-tagged catalytic domain, [ATP] 8.5 μM, values given as range classes. The method in brief:
as §1

Bounds are passed on as bounds.

T1 sequence (P52333 822-1111 limits assumed): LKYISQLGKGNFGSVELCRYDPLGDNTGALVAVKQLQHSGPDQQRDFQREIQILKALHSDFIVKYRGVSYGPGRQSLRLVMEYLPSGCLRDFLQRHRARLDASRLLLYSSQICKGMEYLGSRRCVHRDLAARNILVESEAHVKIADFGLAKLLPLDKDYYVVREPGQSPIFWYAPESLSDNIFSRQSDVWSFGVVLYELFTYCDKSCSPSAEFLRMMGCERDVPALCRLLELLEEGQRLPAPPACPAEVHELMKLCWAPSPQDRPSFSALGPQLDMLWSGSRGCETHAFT
T2 sequence (O60674 849-1124 limits assumed): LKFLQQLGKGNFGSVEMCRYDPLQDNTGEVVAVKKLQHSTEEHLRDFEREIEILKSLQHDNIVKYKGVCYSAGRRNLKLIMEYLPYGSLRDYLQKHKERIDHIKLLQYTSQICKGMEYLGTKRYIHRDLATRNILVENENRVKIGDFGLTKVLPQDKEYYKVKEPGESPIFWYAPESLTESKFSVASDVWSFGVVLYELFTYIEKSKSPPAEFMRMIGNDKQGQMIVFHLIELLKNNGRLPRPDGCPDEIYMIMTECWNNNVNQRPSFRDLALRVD

As to `CC(C)[C@@H](Nc1cncc(-c2c[nH]c3ncc(C(=O)NCC4CCS(=O)(=O)C4)cc23)c1)C(=O)NCC(F)(F)F` (stereo partly drawn) [Example 3-9, N-[(1,1-dioxidotetrahydrothiophen-3-yl)methyl]-3-[5-({(1R)-2-methyl-1-[(2,2,2-trifluoroethyl)carbamoyl]propyl}amino)pyridin-3-yl]-1H-pyrrolo[2,3-b]pyridine-5-carboxamide], the IC50 (as a rule, the concentration that inhibits the measured activity by half) at JAK3 was at most 10 nM; at JAK2, 10 to 500 nM.
For `CC(C)[C@@H](Nc1cncc(-c2c[nH]c3ncc(C(=O)NCc4ccn[nH]4)cc23)c1)C(=O)NCC(F)(F)F` [Example 3-10, 3-[5-({(1R)-2-methyl-1-[(2,2,2-trifluoroethyl)carbamoyl]propyl}amino)pyridin-3-yl]-N-(1H-pyrazol-5-ylmethyl)-1H-pyrrolo[2,3-b]pyridine-5-carboxamide] the same measures were at most 10 nM and 10 to 500 nM.
As for `CC(C)[C@@H](Nc1cncc(-c2c[nH]c3ncc(C(=O)N(C)C(C)c4ccn[nH]4)cc23)c1)C(=O)NCC(F)(F)F` (stereo partly drawn) [Example 3-11, N-methyl-3-[5-({(1R)-2-methyl-1-[(2,2,2-trifluoroethyl)carbamoyl]propyl}amino)pyridin-3-yl]-N-[1-(1H-pyrazol-5-yl)ethyl]-1H-pyrrolo[23-b]pyridine-5-carboxamide], the values for the IC50 at JAK3 and at JAK2 were 10 to 500 nM and above 500 nM, respectively.
For `CC(C)[C@@H](Nc1cncc(-c2c[nH]c3ncc(C(=O)NCc4cnn(C)c4)cc23)c1)C(=O)NCC(F)(F)F` [Example 3-12, N-[(1-methyl-1H-pyrazol-4-yl)methyl]-3-[5-({(1R)-2-methyl-1-[(2,2,2-trifluoroethyl)carbamoyl]propyl}amino)pyridin-3-yl]-1H-pyrrolo[2,3-b]pyridine-5-carboxamide] the same measures were at most 10 nM and at most 10 nM.
For `CC(C)[C@@H](Nc1cncc(-c2c[nH]c3ncc(C(=O)N4CCC(O)CC4)cc23)c1)C(=O)NCC(F)(F)F` [Example 3-13, N~2~-(5-{5-[(4-hydroxypiperidin-1-yl)carbonyl]-1H-pyrrolo[2,3-b]pyridin-3-yl}pyridin-3-yl)-N-(2,2,2-trifluoroethyl)-D-valinamide] the same measures were 10 to 500 nM and above 500 nM.
For `CC(C)[C@@H](Nc1cncc(-c2c[nH]c3ncc(C(=O)NCC4(O)CC4)cc23)c1)C(=O)NCC(F)(F)F` [Example 3-14, N-[(1-hydroxycyclopropyl)methyl]-3-[5-({(1R)-2-methyl-1-[(2,2,2-trifluoroethyl)carbamoyl]propyl}amino)pyridin-3-yl]-1H-pyrrolo[2,3-b]pyridine-5-carboxamide] the same measures were at most 10 nM and at most 10 nM.
`CC(C)C(Nc1cncc(-c2c[nH]c3ncc(S(N)(=O)=O)cc23)c1)C(=O)NCC(F)(F)F` (centres unmarked) [Example 4-1, 3-Methyl-2-(5-(5-sulfamoyl-1H-pyrrolo[2,3-b]pyridin-3-yl)pyridin-3-ylamino)-N-(2,2,2-trifluoroethyl)butanamide]: the concentration for half-maximal inhibition (IC50) was at most 10 nM on JAK3 and 10 to 500 nM on JAK2.
For `CC(C)C(Nc1cncc(-c2c[nH]c3ncc(S(=O)(=O)N(C)C)cc23)c1)C(=O)NCC(F)(F)F` (centres unmarked) [Example 4-2, 2-(5-(5-(N,N-dimethylsulfamoyl)-1H-pyrrolo[2,3-b]pyridin-3-yl)pyridin-3-ylamino)-3-methyl-N-(2,2,2-trifluoroethyl)butanamide] the same measures were 10 to 500 nM and above 500 nM.
For `CC(C)[C@H](Nc1cncc(-c2c[nH]c3ncc(N)cc23)c1)C(=O)NCC(F)(F)F` [Example 5-1, N^2-[5-(5-amino-1H-pyrrolo[2,3-b]pyridin-3-yl)pyridin-3-yl]-N-(2,2,2-trifluoroethyl)valinamide] the same measures were 10 to 500 nM and 10 to 500 nM.
For `CC(=O)Nc1cnc2[nH]cc(-c3cncc(N[C@H](C(=O)NCC(F)(F)F)C(C)C)c3)c2c1` [Example 5-2, N^2-{5-[5-(acetylamino)-1H-pyrrolo[2,3-b]pyridin-3-yl]pyridin-3-yl}-N-(2,2,2-trifluoroethyl)valinamide] the same measures were at most 10 nM and 10 to 500 nM.
As for `CC(C)[C@H](Nc1cncc(-c2c[nH]c3ncc(NS(C)(=O)=O)cc23)c1)C(=O)NCC(F)(F)F` [Example 5-4, N^2-(5-{5-[(methylsulfonyl)amino]-1H-pyrrolo[2,3-b]pyridin-3-yl}pyridin-3-yl)-N-(2,2,2-trifluoroethyl)-L-valinamide], the IC50 at JAK3 was 10 to 500 nM; on JAK2, above 500 nM.
For `CC(C)[C@@H](Nc1cncc(-c2c[nH]c3ncc(NS(C)(=O)=O)cc23)c1)C(=O)NCC(F)(F)F` [Example 5-5, N^2-(5-{5-[(methylsulfonyl)amino]-1H-pyrrolo[2,3-b]pyridin-3-yl}pyridin-3-yl)-N-(2,2,2-trifluoroethyl)-D-valinamide] the same measures were 10 to 500 nM and 10 to 500 nM.
For `CCC(=O)Nc1cnc2[nH]cc(-c3cncc(NC(C(=O)NCC(F)(F)F)C(C)C)c3)c2c1` (centres unmarked) [Example 5-6, N^2-{5-[5-(propanoylamino)-1H-pyrrolo[2,3-b]pyridin-7-ium-3-yl]pyridin-3-yl}-N-(2,2,2-trifluoroethyl)valinamide] the same measures were at most 10 nM and 10 to 500 nM.
For `CC(C)[C@H](Nc1cncc(-c2c[nH]c3ncc(NC(=O)CO)cc23)c1)C(=O)NCC(F)(F)F` [Example 5-7, N~2~-(5-{5-[(hydroxyacetyl)amino]-1H-pyrrolo[2,3-b]pyridin-3-yl}pyridin-3-yl)-N-(2,2,2-trifluoroethyl)valinamide] the same measures were at most 10 nM and 10 to 500 nM.
Turning to `COCC(=O)Nc1cnc2[nH]cc(-c3cncc(N[C@H](C(=O)NCC(F)(F)F)C(C)C)c3)c2c1` [Example 5-8, N~2~-(5-{5-[(methoxyacetyl)amino]-1H-pyrrolo[2,3-b]pyridin-3-yl}pyridin-3-yl)-N-(2,2,2-trifluoroethyl)valinamide], the IC50 at JAK3 is at most 10 nM; at JAK2 it was 10 to 500 nM.
For `CC(C)NC(=O)Nc1cnc2[nH]cc(-c3cncc(N[C@H](C(=O)NCC(F)(F)F)C(C)C)c3)c2c1` [Example 6-1, N^2-(5-{5-[(propan-2-ylcarbamoyl)amino]-1H-pyrrolo[2,3-b]pyridin-3-yl}pyridin-3-yl)-N-(2,2,2-trifluoroethyl)valinamide] the same measures were at most 10 nM and 10 to 500 nM.
For `CCCNC(=O)Nc1cnc2[nH]cc(-c3cncc(NC(C(=O)NCC(F)(F)F)C(C)C)c3)c2c1` (centres unmarked) [Example 6-2, N~2~-(5-{5-[(propylcarbamoyl)amino]-1H-pyrrolo[2,3-b]pylidin-3-yl}pyridin-3-yl)-N-(2,2,2-trifluoroethyl)valinamide] the same measures were at most 10 nM and 10 to 500 nM.
For `CC(C)[C@H](Nc1cncc(-c2c[nH]c3ncc(NC(=O)Nc4ccc(F)cc4F)cc23)c1)C(=O)NCC(F)(F)F` [Example 6-3, N~2~-[5-(5-{[(2,4-difluorophenyl)carbamoyl]amino}-1H-pyrrolo[2,3-b]pyridin-3-yl)pyridin-3-yl]-N-(2,2,2-trifluoroethyl)valinamide] the same measures were at most 10 nM and 10 to 500 nM.
On to `CC(C)C(Nc1cncc(-c2c[nH]c3ncc(NC(=O)N[C@@H](C)C(=O)O)cc23)c1)C(=O)NCC(F)(F)F` (some centres unmarked) [Example 6-4, N-({3-[5-({2-methyl-1-[(2,2,2-trifluoroethyl)carbamoyl]propyl}amino)pyridin-3-yl]-1H-pyrrolo[2,3-b]pyridin-5-yl}carbamoyl)alanine], for which the 50% inhibitory concentration (IC50) is at most 10 nM at JAK3 and 10 to 500 nM at JAK2.
For `CNC(=O)Nc1cnc2[nH]cc(-c3cncc(N[C@H](C(=O)NCC(F)(F)F)C(C)C)c3)c2c1` [Example 6-5, N~2~-(5-{5-[(methylcarbamoyl)amino]-1H-pyrrolo[2,3-b]pyridin-3-yl}pyridin-3-yl)-N-(2,2,2-trifluoroethyl)valinamide] the same measures were at most 10 nM and 10 to 500 nM.
For `COC(=O)Nc1cnc2[nH]cc(-c3cncc(NC(C(=O)NCC(F)(F)F)C(C)C)c3)c2c1` (centres unmarked) [Example 7-1, Methyl {3-[5-({3-methyl-1-oxo-1-[(2,2,2-trifluoroethyl)amino]butan-2-yl}amino)pyridin-3-yl]-1H-pyrrolo[2,3-b]pyridin-5-yl}carbamate] the same measures were 10 to 500 nM and 10 to 500 nM.
For `CCOC(=O)Nc1cnc2[nH]cc(-c3cncc(NC(C(=O)NCC(F)(F)F)C(C)C)c3)c2c1` (centres unmarked) [Example 7-2, ethyl {3-[5-({2-methyl-1-[(2,2,2-trifluoroethyl)carbamoyl]propyl}amino)pyridin-3-yl]-1H-pyrrolo[2,3-b]pyridin-5-yl}carbamate] the same measures were 10 to 500 nM and 10 to 500 nM.
Turning to `CC(C)OC(=O)Nc1cnc2[nH]cc(-c3cncc(NC(C(=O)NCC(F)(F)F)C(C)C)c3)c2c1` (centres unmarked) [Example 7-3, 1-methylethyl {3-[5-({2-methyl-1-[(2,2,2-trifluoroethyl)carbamoyl]propyl}amino)pyridin-3-yl]-1H-pyrrolo[2,3-b]pyridin-5-yl}carbamate], the IC50 at JAK3 and on JAK2 was 10 to 500 nM in each case.
`CC(C)[C@H](Nc1cncc(-c2c[nH]c3ncc(-c4cnn(C)c4)cc23)c1)C(=O)NCC(F)(F)F` [Example 8-2, N^2-{5-[5-(1-methyl-1H-pyrazol-4-yl)-1H-pyrrolo[2,3-b]pyridin-3-yl]pyridin-3-yl}-N-(2,2,2-trifluoroethyl)-L-valinamide]: the IC50 on JAK3 and at JAK2 was 10 to 500 nM each time.
Regarding `CC(C)[C@@H](Nc1cncc(-c2c[nH]c3ncc(-c4cnn(C)c4)cc23)c1)C(=O)NCC(F)(F)F` [Example 8-3, N^2-{5-[5-(1-methyl-1H-pyrazol-4-yl)-1H-pyrrolo[2,3-b]pyridin-3-yl]pyridin-3-yl}-N-(2,2,2-trifluoroethyl)-D-valinamide], the concentration for half-maximal inhibition (IC50) at JAK3 and at JAK2 was at most 10 nM in each case.

These data come from US9096598B2 (Merck Sharp & Dohme Corp., priority 2011, dated 2015).
